# Reference: ChEMBL document CHEMBL1201862, “PubChem BioAssay data set” (2004)
# Calls of active or inactive are those of the source.
# Key:
# [1] = molecular target: T1, Carboxy-terminal domain RNA polymerase II polypeptide A small phosphatase 1 (Homo sapiens, UniProt Q9GZU7); test: inhibitors of CTDSP1, concentration-response testing, biochemical assay, absorbance-based, actives from ultra-high-throughput screening (AID 540297); type: functional
# T1 sequence (Q9GZU7 whole entry): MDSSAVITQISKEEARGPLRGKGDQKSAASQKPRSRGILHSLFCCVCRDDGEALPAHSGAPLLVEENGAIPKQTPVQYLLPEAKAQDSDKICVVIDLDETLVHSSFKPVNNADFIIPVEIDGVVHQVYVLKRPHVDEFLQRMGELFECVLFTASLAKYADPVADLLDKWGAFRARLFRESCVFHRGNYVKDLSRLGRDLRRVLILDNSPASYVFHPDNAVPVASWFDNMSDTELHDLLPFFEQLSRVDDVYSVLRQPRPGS
# [2] = molecular target: 26S proteasome non-ATPase regulatory subunit 14 (Homo sapiens, UniProt O00487); test: inhibition of proteasome subunit RPN11 – biochemical, fluorescence polarization, uHTS hits, confirmation (AID 602368); type: functional
# Chain of 26S proteasome non-ATPase regulatory subunit 14 (O00487 whole entry): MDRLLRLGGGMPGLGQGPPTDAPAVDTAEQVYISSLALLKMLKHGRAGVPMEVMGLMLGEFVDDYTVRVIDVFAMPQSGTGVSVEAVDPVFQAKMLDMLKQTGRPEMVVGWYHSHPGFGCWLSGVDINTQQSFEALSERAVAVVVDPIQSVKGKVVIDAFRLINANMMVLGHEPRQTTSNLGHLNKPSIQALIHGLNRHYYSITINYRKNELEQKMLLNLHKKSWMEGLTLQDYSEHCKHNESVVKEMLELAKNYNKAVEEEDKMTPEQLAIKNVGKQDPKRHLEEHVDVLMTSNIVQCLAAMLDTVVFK
# [3] = molecular target: 72 kDa type IV collagenase (Homo sapiens, UniProt P08253); test: Dose Response validation of uHTS RPN11 inhibitor hits using a MMP-2 Fluorescence assay.; type: functional
# Chain of 72 kDa type IV collagenase (P08253 whole entry): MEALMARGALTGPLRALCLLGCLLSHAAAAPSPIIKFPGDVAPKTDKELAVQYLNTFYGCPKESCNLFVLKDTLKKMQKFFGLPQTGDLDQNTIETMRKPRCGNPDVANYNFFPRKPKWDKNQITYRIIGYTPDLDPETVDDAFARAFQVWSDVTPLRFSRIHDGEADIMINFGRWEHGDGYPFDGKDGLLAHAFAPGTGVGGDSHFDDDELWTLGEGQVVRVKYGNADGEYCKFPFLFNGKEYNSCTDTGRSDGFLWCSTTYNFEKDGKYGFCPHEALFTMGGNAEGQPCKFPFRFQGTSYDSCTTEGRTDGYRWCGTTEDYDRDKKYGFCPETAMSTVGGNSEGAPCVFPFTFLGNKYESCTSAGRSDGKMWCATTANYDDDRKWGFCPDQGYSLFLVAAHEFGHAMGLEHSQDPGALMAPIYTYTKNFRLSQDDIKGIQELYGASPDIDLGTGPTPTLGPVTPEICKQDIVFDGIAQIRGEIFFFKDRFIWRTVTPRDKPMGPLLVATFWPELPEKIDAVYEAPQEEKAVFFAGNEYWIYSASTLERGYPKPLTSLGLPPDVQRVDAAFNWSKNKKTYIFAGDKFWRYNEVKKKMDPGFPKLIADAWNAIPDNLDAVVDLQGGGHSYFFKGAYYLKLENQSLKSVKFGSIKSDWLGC
# [4] = molecular target: Prothrombin (Bos taurus, UniProt P00735); test: thrombin inhibition, dose response, biochemical, fluorescence polarization, uHTS hits (AID 602369); type: functional
# [5] = molecular target: T2, High affinity choline transporter 1 (Homo sapiens, UniProt Q9GZV3); test: CHT inhibitors, dose response, cell-based, 5-point CRC, membrane potential dye (AID 504840); type: functional
# T2 sequence (Q9GZV3 whole entry): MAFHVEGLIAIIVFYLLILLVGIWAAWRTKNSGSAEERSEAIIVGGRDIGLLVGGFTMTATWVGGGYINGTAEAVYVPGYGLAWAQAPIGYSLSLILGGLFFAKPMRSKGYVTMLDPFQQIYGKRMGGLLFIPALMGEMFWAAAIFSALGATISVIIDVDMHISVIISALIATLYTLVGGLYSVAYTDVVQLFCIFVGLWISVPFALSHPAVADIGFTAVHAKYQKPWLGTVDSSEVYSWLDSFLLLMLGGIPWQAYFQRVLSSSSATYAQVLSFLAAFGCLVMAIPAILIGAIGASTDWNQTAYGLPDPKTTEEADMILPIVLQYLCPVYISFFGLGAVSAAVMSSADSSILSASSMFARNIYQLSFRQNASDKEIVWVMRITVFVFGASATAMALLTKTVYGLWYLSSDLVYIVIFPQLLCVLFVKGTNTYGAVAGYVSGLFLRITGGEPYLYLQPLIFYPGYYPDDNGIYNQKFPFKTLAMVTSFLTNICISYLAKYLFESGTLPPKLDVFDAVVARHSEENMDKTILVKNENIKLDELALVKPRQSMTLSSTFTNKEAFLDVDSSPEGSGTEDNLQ
# [6] = molecular target: T2, High affinity choline transporter 1; test: CHT inhibitors, dose response, cell-based, 10-point CRC, membrane potential dye (AID 588401); type: functional;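 note: membrane potential dye fluorescence of choline-evoked depolarization via CHT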
# [7] = molecular target: Melanocortin receptor 4 (Homo sapiens, UniProt P32245); test: MC4R antagonist potency on cAMP, dose response, cell-based, TR-FRET, biased antagonists (AID 602298); type: functional;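 note: antagonist potency against agonist-stimulated cAMP production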
# Chain of Melanocortin receptor 4 (P32245 whole entry): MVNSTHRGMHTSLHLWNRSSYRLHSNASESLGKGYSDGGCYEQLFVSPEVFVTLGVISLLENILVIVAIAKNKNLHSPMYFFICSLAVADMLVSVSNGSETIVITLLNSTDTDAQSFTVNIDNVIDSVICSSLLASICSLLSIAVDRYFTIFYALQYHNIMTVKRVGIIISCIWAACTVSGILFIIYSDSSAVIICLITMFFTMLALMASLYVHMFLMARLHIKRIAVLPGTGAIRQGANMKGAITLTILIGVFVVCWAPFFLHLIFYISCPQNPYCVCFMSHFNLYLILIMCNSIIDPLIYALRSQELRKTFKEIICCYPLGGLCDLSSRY
# [8] = nonselective inhibitors of cellular cAMP signaling, dose response, counter-screen for MC4R biased antagonist project, cell-based, TR-FRET cAMP detection (AID 602305); type: functional;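 note: U2OS cells stimulated with forskolin near its EC80 as the cAMP inducer; potency is for inhibition of forskolin-stimulated cAMP signaling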
# [9] = A cytotoxicity screen of small molecule inhibitors of the PhoP region in Salmonella typhi identified in the primary screen. [Related pubchem assays: 1850, 1864, 1985 ]; type: functional
# [10] = molecular target: Serine/threonine-protein kinase pim-1 (Homo sapiens, UniProt P11309); type: functional
# Chain of Serine/threonine-protein kinase pim-1 (P11309 whole entry): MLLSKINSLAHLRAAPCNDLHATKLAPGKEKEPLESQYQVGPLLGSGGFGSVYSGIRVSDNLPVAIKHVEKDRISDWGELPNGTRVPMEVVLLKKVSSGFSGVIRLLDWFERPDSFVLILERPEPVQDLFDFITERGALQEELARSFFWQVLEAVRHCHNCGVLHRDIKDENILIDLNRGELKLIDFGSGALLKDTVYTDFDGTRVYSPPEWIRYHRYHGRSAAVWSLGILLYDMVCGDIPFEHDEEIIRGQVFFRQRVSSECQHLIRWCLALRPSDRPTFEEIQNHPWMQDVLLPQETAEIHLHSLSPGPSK
# [11] = molecular target: Cell division cycle 7-related protein kinase (Homo sapiens, UniProt O00311); type: functional;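 note: value obtained from a kinome-wide kinase panel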
# Chain of Cell division cycle 7-related protein kinase (O00311 whole entry): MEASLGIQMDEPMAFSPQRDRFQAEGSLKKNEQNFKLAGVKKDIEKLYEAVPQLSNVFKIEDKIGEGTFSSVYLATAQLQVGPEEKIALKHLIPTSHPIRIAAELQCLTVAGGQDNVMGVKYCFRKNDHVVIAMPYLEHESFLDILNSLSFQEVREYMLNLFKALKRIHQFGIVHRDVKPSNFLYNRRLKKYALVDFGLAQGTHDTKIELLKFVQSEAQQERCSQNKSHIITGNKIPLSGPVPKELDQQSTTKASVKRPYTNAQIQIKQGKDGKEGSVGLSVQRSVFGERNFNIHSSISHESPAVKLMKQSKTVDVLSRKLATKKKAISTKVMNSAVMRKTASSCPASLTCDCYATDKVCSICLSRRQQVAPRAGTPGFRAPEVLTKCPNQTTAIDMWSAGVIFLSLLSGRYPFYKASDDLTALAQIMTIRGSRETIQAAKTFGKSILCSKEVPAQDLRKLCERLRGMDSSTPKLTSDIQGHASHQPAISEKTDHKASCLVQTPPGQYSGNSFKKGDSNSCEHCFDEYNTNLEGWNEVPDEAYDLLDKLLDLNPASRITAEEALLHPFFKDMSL
# [12] = molecular target: Homeodomain-interacting protein kinase 2 (Homo sapiens, UniProt Q9H2X6); type: functional;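 note: measured within a kinome-wide kinase profiling panel, HIPK2 being one panel member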
# [13] = molecular target: MAP kinase-interacting serine/threonine-protein kinase 2 (Homo sapiens, UniProt Q9HBH9); type: functional
# Chain of MAP kinase-interacting serine/threonine-protein kinase 2 (Q9HBH9 whole entry): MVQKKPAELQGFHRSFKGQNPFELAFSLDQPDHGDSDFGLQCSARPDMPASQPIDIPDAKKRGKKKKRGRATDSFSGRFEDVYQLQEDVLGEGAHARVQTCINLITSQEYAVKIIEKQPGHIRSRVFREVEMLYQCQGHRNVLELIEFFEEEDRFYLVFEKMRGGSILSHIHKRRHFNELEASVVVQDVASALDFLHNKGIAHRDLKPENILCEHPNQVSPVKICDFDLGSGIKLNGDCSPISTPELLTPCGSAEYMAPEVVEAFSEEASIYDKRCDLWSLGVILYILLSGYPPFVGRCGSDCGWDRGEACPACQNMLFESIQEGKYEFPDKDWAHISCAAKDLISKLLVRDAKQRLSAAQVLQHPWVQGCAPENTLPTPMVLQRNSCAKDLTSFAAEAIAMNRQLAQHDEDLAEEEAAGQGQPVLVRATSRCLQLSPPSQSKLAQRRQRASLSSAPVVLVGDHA
# [14] = molecular target: T3, Interleukin-1 receptor-associated kinase 4 (Homo sapiens, UniProt Q9NWZ3); type: functional
# T3 sequence (Q9NWZ3 whole entry): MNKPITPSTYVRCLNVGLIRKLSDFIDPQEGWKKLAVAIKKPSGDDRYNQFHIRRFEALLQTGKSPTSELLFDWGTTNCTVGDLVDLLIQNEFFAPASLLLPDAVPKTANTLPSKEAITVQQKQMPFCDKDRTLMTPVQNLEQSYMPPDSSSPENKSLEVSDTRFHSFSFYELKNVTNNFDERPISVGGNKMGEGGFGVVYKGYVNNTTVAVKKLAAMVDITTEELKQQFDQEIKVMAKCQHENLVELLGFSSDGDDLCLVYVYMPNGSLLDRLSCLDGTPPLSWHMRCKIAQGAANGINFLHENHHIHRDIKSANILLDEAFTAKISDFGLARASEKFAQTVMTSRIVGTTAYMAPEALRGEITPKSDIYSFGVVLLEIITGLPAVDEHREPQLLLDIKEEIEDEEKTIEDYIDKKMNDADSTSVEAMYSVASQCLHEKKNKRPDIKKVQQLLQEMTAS
# [15] = molecular target: Glycogen synthase kinase-3 beta (Homo sapiens, UniProt P49841); type: functional;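 note: value comes from a broad kinome profiling panel, with GSK3B as the panel member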
# Chain of Glycogen synthase kinase-3 beta (P49841 whole entry): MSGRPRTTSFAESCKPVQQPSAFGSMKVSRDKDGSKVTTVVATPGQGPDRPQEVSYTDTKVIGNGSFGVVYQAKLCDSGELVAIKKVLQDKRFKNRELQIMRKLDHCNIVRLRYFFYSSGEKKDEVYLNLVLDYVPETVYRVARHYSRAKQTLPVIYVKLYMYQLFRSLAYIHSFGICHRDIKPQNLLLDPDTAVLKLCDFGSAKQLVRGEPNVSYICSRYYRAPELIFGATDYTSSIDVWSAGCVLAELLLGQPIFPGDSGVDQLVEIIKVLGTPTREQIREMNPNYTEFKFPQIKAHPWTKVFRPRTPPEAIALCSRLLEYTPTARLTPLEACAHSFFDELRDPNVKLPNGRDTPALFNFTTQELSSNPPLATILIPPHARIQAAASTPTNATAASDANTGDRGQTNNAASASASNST
# [16] = molecular target: cAMP-dependent protein kinase catalytic subunit alpha (Homo sapiens, UniProt P17612); type: functional
# [17] = molecular target: Dual specificity protein kinase CLK4 (Homo sapiens, UniProt Q9HAZ1); type: functional
# Chain of Dual specificity protein kinase CLK4 (Q9HAZ1 whole entry): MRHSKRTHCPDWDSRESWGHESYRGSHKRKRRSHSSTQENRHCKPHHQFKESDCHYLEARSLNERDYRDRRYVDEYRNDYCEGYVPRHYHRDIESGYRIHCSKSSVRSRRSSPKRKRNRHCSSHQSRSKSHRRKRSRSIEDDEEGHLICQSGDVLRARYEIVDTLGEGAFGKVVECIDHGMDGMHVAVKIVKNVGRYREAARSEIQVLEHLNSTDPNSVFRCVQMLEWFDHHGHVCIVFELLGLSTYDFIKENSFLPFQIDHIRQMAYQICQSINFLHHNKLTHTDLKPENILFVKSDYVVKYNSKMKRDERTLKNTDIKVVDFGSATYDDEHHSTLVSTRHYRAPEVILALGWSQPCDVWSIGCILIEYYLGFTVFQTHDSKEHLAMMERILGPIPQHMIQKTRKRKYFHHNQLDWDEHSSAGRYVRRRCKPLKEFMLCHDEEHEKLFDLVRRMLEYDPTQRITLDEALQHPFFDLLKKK
# [18] = molecular target: Mitogen-activated protein kinase kinase kinase kinase 4 (Homo sapiens, UniProt O95819); type: functional
# Chain of Mitogen-activated protein kinase kinase kinase kinase 4 (O95819 whole entry): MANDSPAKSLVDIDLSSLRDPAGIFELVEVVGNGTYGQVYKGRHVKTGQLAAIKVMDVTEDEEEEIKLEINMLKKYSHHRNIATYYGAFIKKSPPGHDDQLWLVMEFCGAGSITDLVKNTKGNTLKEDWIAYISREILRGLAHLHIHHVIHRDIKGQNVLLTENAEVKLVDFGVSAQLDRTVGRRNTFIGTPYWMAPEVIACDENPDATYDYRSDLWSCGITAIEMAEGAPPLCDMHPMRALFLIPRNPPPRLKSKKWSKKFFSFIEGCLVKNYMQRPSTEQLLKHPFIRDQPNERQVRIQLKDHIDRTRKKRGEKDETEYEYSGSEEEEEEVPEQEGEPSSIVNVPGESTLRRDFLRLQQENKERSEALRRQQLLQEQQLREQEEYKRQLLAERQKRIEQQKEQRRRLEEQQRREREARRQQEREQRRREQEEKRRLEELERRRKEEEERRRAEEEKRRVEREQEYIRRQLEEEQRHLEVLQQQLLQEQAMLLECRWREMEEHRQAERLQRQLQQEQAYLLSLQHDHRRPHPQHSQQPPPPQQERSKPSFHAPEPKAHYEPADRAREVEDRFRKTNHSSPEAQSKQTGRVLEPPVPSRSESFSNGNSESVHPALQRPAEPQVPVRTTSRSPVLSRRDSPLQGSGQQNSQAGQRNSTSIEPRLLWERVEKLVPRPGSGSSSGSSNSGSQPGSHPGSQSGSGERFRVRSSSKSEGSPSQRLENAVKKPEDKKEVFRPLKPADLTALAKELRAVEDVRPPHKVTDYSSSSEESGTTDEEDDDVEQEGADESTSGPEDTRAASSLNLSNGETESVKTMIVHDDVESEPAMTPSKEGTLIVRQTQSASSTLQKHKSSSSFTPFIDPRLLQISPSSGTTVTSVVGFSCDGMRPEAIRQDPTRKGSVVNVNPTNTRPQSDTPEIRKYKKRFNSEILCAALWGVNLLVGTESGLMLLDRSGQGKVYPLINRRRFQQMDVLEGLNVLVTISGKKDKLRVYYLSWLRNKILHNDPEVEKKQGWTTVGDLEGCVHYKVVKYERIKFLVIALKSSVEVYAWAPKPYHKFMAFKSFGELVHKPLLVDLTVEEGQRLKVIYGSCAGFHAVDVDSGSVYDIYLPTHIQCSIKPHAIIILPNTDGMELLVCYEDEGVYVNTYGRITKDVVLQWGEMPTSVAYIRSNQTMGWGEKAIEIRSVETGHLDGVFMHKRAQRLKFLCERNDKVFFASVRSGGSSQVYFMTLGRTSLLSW
# [19] = molecular target: T4, Apoptotic protease-activating factor 1 (Homo sapiens, UniProt O14727); test: SAR analysis of small molecule Activators of Apaf-1 in a Fluorescent assay.; type: functional; details: read-out: EC50_Mean
# T4 sequence (O14727 whole entry): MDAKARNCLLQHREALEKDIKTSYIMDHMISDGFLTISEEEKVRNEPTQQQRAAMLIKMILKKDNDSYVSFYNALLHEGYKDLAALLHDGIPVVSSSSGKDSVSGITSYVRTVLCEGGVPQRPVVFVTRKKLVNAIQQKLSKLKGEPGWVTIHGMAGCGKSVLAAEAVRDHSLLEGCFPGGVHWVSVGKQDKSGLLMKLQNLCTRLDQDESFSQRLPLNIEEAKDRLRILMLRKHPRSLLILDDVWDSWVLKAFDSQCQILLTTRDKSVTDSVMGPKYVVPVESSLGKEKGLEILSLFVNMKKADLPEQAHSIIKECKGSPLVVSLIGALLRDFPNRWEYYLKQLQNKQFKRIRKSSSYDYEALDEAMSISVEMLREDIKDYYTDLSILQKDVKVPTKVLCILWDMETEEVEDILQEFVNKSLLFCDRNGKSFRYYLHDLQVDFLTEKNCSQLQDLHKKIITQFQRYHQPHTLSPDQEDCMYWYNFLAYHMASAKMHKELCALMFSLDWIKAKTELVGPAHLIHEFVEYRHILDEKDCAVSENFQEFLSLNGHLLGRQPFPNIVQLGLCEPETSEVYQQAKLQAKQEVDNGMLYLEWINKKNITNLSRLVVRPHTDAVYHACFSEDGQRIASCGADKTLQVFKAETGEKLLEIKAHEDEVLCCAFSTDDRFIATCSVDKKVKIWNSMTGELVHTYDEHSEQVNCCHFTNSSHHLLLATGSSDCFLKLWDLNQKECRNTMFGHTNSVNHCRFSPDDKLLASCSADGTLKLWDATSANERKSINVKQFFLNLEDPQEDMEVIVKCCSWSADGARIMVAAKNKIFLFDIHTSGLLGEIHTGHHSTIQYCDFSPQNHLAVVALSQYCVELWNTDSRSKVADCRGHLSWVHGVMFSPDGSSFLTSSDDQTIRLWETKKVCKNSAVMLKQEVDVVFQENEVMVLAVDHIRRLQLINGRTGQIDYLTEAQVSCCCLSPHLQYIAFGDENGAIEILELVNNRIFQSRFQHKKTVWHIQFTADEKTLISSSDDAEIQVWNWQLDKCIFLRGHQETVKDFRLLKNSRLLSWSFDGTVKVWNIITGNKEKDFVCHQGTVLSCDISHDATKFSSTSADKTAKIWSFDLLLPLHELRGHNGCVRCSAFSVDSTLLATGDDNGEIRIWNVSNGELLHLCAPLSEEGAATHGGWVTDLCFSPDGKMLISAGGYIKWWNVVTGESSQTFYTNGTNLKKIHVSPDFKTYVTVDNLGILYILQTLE
# [20] = molecular target: T5, Insulin-degrading enzyme (Homo sapiens, UniProt P14735); test: activators of recombinant IDE enzyme, dose response, counter-screen for IDE activator project, biochemical, fluorescence polarization (AID 588681)
# T5 sequence (P14735 whole entry): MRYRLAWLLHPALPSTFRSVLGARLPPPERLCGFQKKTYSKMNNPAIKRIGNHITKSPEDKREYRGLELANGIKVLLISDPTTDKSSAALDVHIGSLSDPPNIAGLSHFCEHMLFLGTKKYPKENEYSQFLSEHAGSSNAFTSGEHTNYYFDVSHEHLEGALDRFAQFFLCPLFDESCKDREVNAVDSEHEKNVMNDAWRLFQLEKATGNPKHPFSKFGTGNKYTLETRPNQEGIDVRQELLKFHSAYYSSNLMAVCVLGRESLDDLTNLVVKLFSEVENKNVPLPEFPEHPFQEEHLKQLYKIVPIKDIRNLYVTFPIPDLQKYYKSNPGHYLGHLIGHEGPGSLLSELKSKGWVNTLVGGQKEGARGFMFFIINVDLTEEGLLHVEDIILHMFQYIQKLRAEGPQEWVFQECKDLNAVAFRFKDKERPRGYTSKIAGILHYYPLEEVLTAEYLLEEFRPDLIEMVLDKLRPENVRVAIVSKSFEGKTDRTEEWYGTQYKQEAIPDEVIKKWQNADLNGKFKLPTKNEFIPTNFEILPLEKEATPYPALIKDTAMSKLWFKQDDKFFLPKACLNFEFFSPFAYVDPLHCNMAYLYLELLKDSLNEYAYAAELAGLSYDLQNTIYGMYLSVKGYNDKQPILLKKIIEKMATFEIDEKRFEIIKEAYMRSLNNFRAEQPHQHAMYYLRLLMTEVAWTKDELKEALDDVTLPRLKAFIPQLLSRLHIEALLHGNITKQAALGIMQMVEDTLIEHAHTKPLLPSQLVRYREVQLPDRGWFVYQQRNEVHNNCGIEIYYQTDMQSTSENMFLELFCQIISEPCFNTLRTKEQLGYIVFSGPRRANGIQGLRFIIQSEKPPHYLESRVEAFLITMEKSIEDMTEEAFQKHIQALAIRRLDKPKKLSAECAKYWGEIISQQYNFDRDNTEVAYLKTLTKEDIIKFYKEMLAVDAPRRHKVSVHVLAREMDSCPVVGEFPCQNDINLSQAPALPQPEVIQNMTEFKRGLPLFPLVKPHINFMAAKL
# [21] = molecular target: T4, Apoptotic protease-activating factor 1; type: functional
# [22] = molecular target: T5, Insulin-degrading enzyme; test: activators of endogenous IDE in HEK cells, dose response, cell-based, fluorescence polarization (AID 588439); type: functional
# [23] = system: HEK293; test: HEK cell cytotoxicity by LDH release, dose response, cytotoxicity control for IDE activator project, fluorescence, HEK cells (AID 588440); type: functional, cell-based; details: Homo sapiens;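 note: cytotoxicity by LDH release measuring loss of membrane integrity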
# [24] = system: HEK293; test: optical interference in Abeta FP readout, dose response, artefact control for IDE activator project, biochemical, fluorescence polarization (AID 588442); type: functional, cell-based; details: Homo sapiens
# 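Throughout, for EC50 Mean: caspase-3 cleavage of fluorogenic Rh110 DEVD substrate downstream of apoptosome activation.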
structure (smiles),measurement,setting,value
CCN(CC(=O)Nc1c(F)cccc1F)C(=O)CCc1nc2sc3c(c2c(=O)[nH]1)CCCC3,IC50,[1],4.4 µM (active)
same,IC50,[2],19.9 µM (active)
same,IC50,[3],> 100 µM (inactive)
same,IC50,[4],85.3 µM (active)
Cc1cc(NS(=O)(=O)c2ccc(NC(=O)c3ccc(Cl)cc3Cl)cc2)no1,IC50,[5],5.81 µM (active)
same,IC50,[6],4.47 µM (active)
COc1cc2c(cc1NC(=O)COC(=O)CNS(=O)(=O)c1ccc(C)cc1)oc1ccccc12,IC50,[7],> 64.6 µM (inactive)
same,IC50,[8],> 64.6 µM (inactive)
O=C(On1c(-c2ccccc2)nc2ccccc2c1=O)c1ccco1,EC50,[9],> 50 µM (active)
same,IC50,[5],4.57 µM (active)
same,IC50,[6],8.91 µM (active)
Nc1n[nH]c2ccc(-c3cc(Cc4ccccc4)no3)cc12,Ki,[10],> 10 µM (inactive)
same,Ki,[11],0.0316 µM (active)
same,Ki,[12],1.58 µM (active)
same,Ki,[13],1 µM (active)
same,Ki,[14],6.31 µM (active)
same,Ki,[15],0.158 µM (active)
same,Ki,[16],0.316 µM (active)
same,Ki,[17],0.01 µM (active)
same,Ki,[18],0.501 µM (active)
Cc1ccc(S(=O)(=O)NCC(=O)OCc2nnc(-c3ccccc3)o2)cc1,IC50,[7],> 64.6 µM (inactive)
same,IC50,[8],> 64.6 µM (inactive)
CCOc1ccc(C(=O)CC(C(=O)O)c2cn(C)c3ccccc23)cc1 (stereo not drawn),EC50,[19],> 100 µM (inactive)
CCCCNc1c(-c2ccc(SC(C)CC)cc2)nc2cnccn12 (stereo not drawn),EC50,[20],> 54.7 µM (inactive)
same,IC50,[21],63.1 µM (active)
same,EC50,[22],> 54.7 µM (inactive)
same,IC50,[23],27.4 µM (inactive)
same,EC50,[24],> 55.9 µM (inactive)
